Test results: patent US20150335609A1, “COMBINATIONS OF HISTONE DEACETYLASE INHIBITOR AND PAZOPANIB AND USES THEREOF” (Pharmacyclics, Inc., priority 2012, published 2015)
Where two headings read alike, the source gives them in different places.

Tests used:
[1] = Clinical pharmacokinetics of abexinostat, IV and oral dosing; settings: human, in vivo; for bioavailability: humans; for AUC(0-inf): humans with cancer, solution form, read-out: Systemic exposure measured as AUC0-∞
Procedure: In clinical trials involving humans with cancer, abexinostat in solution form was administered at 2 mg/kg as a single oral dose and as multiple 2-hour IV infusion doses.

[2] = Pharmacokinetics in laboratory animals, fasted state versus fed state; type: in vivo
[3] = Site of absorption of abexinostat
[4] = tested on: RAD51; assay: Pre-clinical models, expression of DNA repair genes
Excerpt: Following chemotherapy and/or radiation treatment, some patient's tumors may turn on certain genes as a strategy by the tumor to adapt to the therapy and become resistant to cell death. One example of a genetic change that occurs in many cancers is the activation of the DNA repair gene RAD51. In response to treatment with DNA-damaging chemotherapy or radiation, tumors will often turn on DNA repair genes (including RAD51) as an adaptive strategy to help the tumor repair the DNA damage done by these agents.

[5] = tested on: tumor cell lines; assay: In vitro activity against tumor cell lines; type: cell-based
[6] = tested on: lung, colon, prostate, pancreatic and brain tumors; assay: Mouse tumor models; type: in vivo
[7] = tested on: primary human tumors; assay: Ex vivo activity in primary human tumors; type: cell-based; settings: tumors from patients
[8] = Incidence of thrombocytopenia by dosing frequency; type: in vivo, human; settings: twice a day dosing compared to three times a day dosing
Procedure: In some embodiments, abexinostat (or a salt thereof; e.g., abexinostat HCl) is administered once per day during a cycle of abexinostat (or a salt thereof; e.g., abexinostat HCl). In some embodiments, abexinostat (or a salt thereof; e.g., abexinostat HCl) is administered twice per day during a cycle of abexinostat (or a salt thereof; e.g., abexinostat HCl). In some embodiments, abexinostat (or a salt thereof; e.g., abexinostat HCl) is administered three times per day during a cycle of abexinostat (or a salt thereof; e.g., abexinostat HCl).
In certain instances, thrombocytopenia is a side effect observed in humans that receive treatment with HDAC inhibitor compounds. Grade 4 thrombocytopenia typically includes instances when the human has a platelet count less than 25,000 per […]. Thrombocytopenia may be ameliorated or avoided by lowering the daily dose of abexinostat. In some embodiment, a method disclosed herein further comprises an abexinostat (or a salt thereof; e.g., abexinostat HCl) drug holiday following an abexinostat (or a salt thereof; e.g., abexinostat HCl) cycle.

bioavailability ([1]; 2 mg/kg, administered as immediate release capsules or an oral solution): ~27% | AUC(0-inf) ([1]; 2 mg/kg, multiple 2-hour IV infusion doses): 5.9 µM·h | AUC(0-inf) ([1]; 2 mg/kg, single oral dose): 1.45 µM·h | bioavailability ([1]; from AUC0-∞ of oral versus IV dosing at 2 mg/kg): ~27%
Compound: CN(C)Cc1c(C(=O)NCCOc2ccc(C(=O)NO)cc2)oc2ccccc12 [abexinostat, N-hydroxy-4-{2-[3-(N,N-dimethylaminomethyl)benzofuran-2-ylcarbonylamino]ethoxy}-benzamide]
pharmacokinetics, fasted state versus fed state [2]: difference in pharmacokinetics was observed | site of absorption [3]: preferentially absorbed in the intestines | effect on RAD51 (and other DNA repair genes) [4]: able to turn off RAD51 | activity against tumor cell lines [5]: active against many tumor cell lines | efficacy in mouse tumor models [6]: efficacious in mouse models of lung, colon, prostate, pancreatic and brain tumors | activity in primary human tumors [7]: active in primary human tumors from patients with colon, ovarian, lung and many hematological cancers | incidences of thrombocytopenia [8]: reduces the incidences of thrombocytopenia
